Source: patent US10588935B2, “FC receptor (FcRn) binding peptides and uses thereof” (THE BRIGHAM AND WOMEN'S HOSPITAL, INC., priority 2013, dated 2020)
“And” between values parts separate entries of the source, which are not always exact repeats. Identical values can stand only once. Like-named read-outs stand apart in the source and are kept apart here. Bridge positions count the residues as written; N and C are the ends. Peptide text beside a SMILES is read from it.

Target: T1, soluble human FcRn (Homo sapiens, UniProt P55899)
T1 construct: Soluble human FcRn was expressed and purified by Biogen-Idec as previously described (29)
Assay: SPR (Biacore) affinity of peptides for immobilized soluble human FcRn
Type: binding
Procedure: SPR analyses were conducted using a Biacore 3000 or T100 instrument. Research-grade CM5 sensor chips and all coupling reagents for immobilization were purchased from Biacore. All proteins were cross-linked to the dextran surface of a CM5 sensor chip by standard amine coupling chemistry as recommended by Biacore. […] Binding experiments were performed at pH 6.0 or 7.4 using 50 mM phosphate, 100 mM sodium chloride and 0.01% surfactant P20. […] Bound albumin protein was then allowed to dissociate from the chip for 5 minutes with running buffer. Any remaining albumin was removed from the chip with a 60 second injection (2 cycles) of pH 8.0 Tris-HCl regeneration buffer (1 M Tris pH 8.0) at 25 μL/min flow rate. The binding responses recorded near the end of the association phase were plotted as a function of concentration. Equilibrium dissociation constants (KD), were derived from sensorgrams using the 1:1 binding model of BIAevaluation software 4.1.

[1] = Table 2, pH 7.4, data only 100 uM, therefore Kd may be higher, read-out: Kd, pH 7.4 Biacore
[2] = Table 1, pH 6, shFcRn immobilized on the sensor chip, steady state fit, read-out: Kd, pH 6** Biacore
[3] = Table 2, pH 6, immobilized shFcRn, data fit steady state or 2 site, read-out: Kd, pH 6** Biacore

Kd Ratio 7.4/6.0 (Table 2)	Kd [1] [nM]	Kd [2] [nM]	Kd [3]	SMILES
80	–	–	–	CSCC[C@@H]1NC(=O)[C@H](CCC(=O)O)NC(=O)[C@H](CCC(=O)O)NC(=O)[C@H](CC(=O)O)NC(=O)[C@H](Cc2c[nH]c3ccccc23)NC(=O)[C@H](Cc2c[nH]c3ccccc23)NC(=O)[C@@H](NC(=O)[C@H](CCCCN)NC(=O)[C@H](CCSC)NC(=O)[C@@H](NC(C)=O)C(C)C)CSSC[C@@H](C(=O)N[C@@H](CCCNC(=N)N)C(=O)N[C@@H](C)C(=O)N[C@H](C(N)=O)C(C)C)NC(=O)[C@H](CC(C)C)NC1=O [SYN1540 A] (Ac-VMKCWWDEEMLCRAV-NH2; disulfide 4-12)
83	8600	–	–	CSCC[C@@H]1NC(=O)[C@H](CCC(=O)O)NC(=O)[C@H](CCC(=O)O)NC(=O)[C@H](CC(=O)O)NC(=O)[C@H](Cc2c[nH]c3ccccc23)NC(=O)[C@H](Cc2c[nH]c3ccccc23)NC(=O)[C@@H](NC(=O)[C@H](CCCCN)NC(=O)[C@H](CCSC)NC(=O)[C@@H](NC(C)=O)C(C)C)CSSC[C@@H](C(=O)N[C@@H](CCCNC(=N)N)C(=O)N[C@@H](Cc2ccc(O)cc2)C(=O)N[C@@H](Cc2ccccc2)C(N)=O)NC(=O)[C@H](CC(C)C)NC1=O [SYN1539] (Ac-VMKCWWDEEMLCRYF-NH2; disulfide 4-12 (inferred))
23.3	–	–	–	CSCC[C@H](NC(=O)[C@H](C)NC(C)=O)C(=O)N[C@H](C(=O)N[C@H]1CSSC[C@@H](C(=O)N[C@@H](CCC(=O)O)C(=O)N[C@@H](Cc2ccc(O)cc2)C(=O)N[C@H](C(N)=O)C(C)C)NC(=O)[C@H](CO)NC(=O)[C@H](Cc2ccccc2)NC(=O)CNC(=O)[C@H](CC(=O)O)NC(=O)[C@H](CC(=O)O)NC(=O)[C@H](Cc2c[nH]c3ccccc23)NC(=O)[C@H](CCCCN)NC1=O)[C@@H](C)O [SYN1144] (Ac-AMTCKWDDGFSCEYV-NH2; disulfide 4-12 (inferred))
–	–	570	–	CC(=O)N[C@@H](C)C(=O)NCC(=O)N[C@@H](CCCNC(=N)N)C(=O)N[C@@H](Cc1ccc(O)cc1)C(=O)N[C@@H](Cc1ccccc1)C(=O)N[C@H]1CSSC[C@@H](C(=O)N[C@@H](CCC(=O)O)C(=O)N[C@@H](CCC(=O)O)C(=O)N[C@H](C(=O)NCC(=O)N[C@H](C(=O)NCC(=O)NCC(N)=O)[C@@H](C)O)C(C)C)NC(=O)[C@H](Cc2c[nH]c3ccccc23)NC(=O)CNC(=O)[C@H](Cc2c[nH]cn2)NC(=O)[C@H](CCCCN)NC(=O)[C@H](Cc2c[nH]c3ccccc23)NC(=O)[C@H](CCCCN)NC(=O)[C@H]([C@@H](C)O)NC1=O [SYN1708]
–	–	> 100000	–	CC(=O)N[C@@H](CCCNC(=N)N)C(=O)N[C@@H](Cc1ccc(O)cc1)C(=O)N[C@@H](Cc1ccccc1)C(=O)N[C@H]1CSSC(C)(C)[C@@H](C(=O)N[C@@H](CCC(=O)O)C(=O)N[C@@H](CCC(=O)O)C(=O)N[C@H](C(N)=O)C(C)C)NC(=O)[C@H](Cc2c[nH]c3ccccc23)NC(=O)CNC(=O)[C@H](Cc2c[nH]cn2)NC(=O)[C@H](CCCCN)NC(=O)[C@H](Cc2c[nH]c3ccccc23)NC(=O)[C@H](CCCCN)NC(=O)[C@H]([C@@H](C)O)NC1=O [SYN1556]
84	–	–	–	CSCC[C@H](NC(=O)[C@@H](NC(C)=O)C(C)C)C(=O)N[C@@H](Cc1c[nH]cn1)C(=O)N[C@H]1CSSC[C@@H](C(=O)N[C@@H](CC(=O)O)C(=O)N[C@@H](CCC(N)=O)C(=O)NCC(N)=O)NC(=O)[C@H](CCCCN)NC(=O)[C@H](Cc2ccccc2)NC(=O)[C@H](CCC(=O)O)NC(=O)[C@H](CCC(=O)O)NC(=O)[C@H](CC(=O)O)NC(=O)[C@H](Cc2c[nH]c3ccccc23)NC(=O)[C@H](Cc2ccccc2)NC1=O [SYN1197] (Ac-VMHCFWDEEFKCDQG-NH2; disulfide 4-12 (inferred))
–	–	> 100000	–	CC(=O)N[C@@H](CCCNC(=N)N)C(=O)N[C@@H](Cc1ccc(O)cc1)C(=O)N[C@@H](Cc1ccccc1)C(=O)N[C@H]1CSSC[C@@H](C(=O)N[C@@H](CCC(=O)O)C(=O)N[C@@H](CCC(=O)O)C(=O)N[C@@H](C)C(N)=O)NC(=O)[C@H](Cc2c[nH]c3ccccc23)NC(=O)CNC(=O)[C@H](Cc2c[nH]cn2)NC(=O)[C@H](CCCCN)NC(=O)[C@H](Cc2c[nH]c3ccccc23)NC(=O)[C@H](CCCCN)NC(=O)[C@H]([C@@H](C)O)NC1=O [SYN1554] (Ac-RYFCTKWKHGWCEEA-NH2; disulfide 4-12)
7.8	12000	–	–	CSCC[C@H](NC(=O)[C@H](Cc1ccc(O)cc1)NC(C)=O)C(=O)N[C@H](C(=O)N[C@H]1CSSC[C@@H](C(=O)N[C@@H](CCC(=O)O)C(=O)N[C@@H](Cc2ccc(O)cc2)C(=O)N[C@H](C(N)=O)C(C)C)NC(=O)[C@H](CO)NC(=O)[C@H](Cc2ccccc2)NC(=O)CNC(=O)[C@H](CC(=O)O)NC(=O)[C@H](C)NC(=O)[C@H](Cc2c[nH]c3ccccc23)NC(=O)[C@H](CCCCN)NC1=O)[C@@H](C)O [SYN1149] (Ac-YMTCKWADGFSCEYV-NH2; disulfide 4-12 (inferred))
25	–	–	1500 ± 220 nM	CSCC[C@H](NC(=O)[C@H](Cc1ccc(O)cc1)NC(C)=O)C(=O)N[C@H](C(=O)N[C@H]1CSSC[C@@H](C(=O)N[C@@H](CCC(=O)O)C(=O)N[C@@H](Cc2ccc(O)cc2)C(=O)N[C@H](C(N)=O)C(C)C)NC(=O)[C@H](CO)NC(=O)[C@H](Cc2ccccc2)NC(=O)[C@H](C)NC(=O)[C@H](CC(=O)O)NC(=O)[C@H](CC(=O)O)NC(=O)[C@H](Cc2c[nH]c3ccccc23)NC(=O)[C@H](CCCCN)NC1=O)[C@@H](C)O [SYN1151] (Ac-YMTCKWDDAFSCEYV-NH2; disulfide 4-12 (inferred))
106	–	–	–	CSCC[C@@H]1NC(=O)[C@H](CCC(=O)O)NC(=O)[C@H](CCC(=O)O)NC(=O)[C@H](CC(=O)O)NC(=O)[C@H](Cc2c[nH]c3ccccc23)NC(=O)[C@H](Cc2c[nH]c3ccccc23)NC(=O)[C@@H](NC(=O)[C@H](Cc2c[nH]cn2)NC(=O)[C@H](CCSC)NC(=O)[C@@H](NC(C)=O)C(C)C)CSSC[C@@H](C(=O)N[C@@H](CCCNC(=N)N)C(=O)N[C@@H](C)C(=O)N[C@@H](Cc2ccccc2)C(N)=O)NC(=O)[C@H](CC(C)C)NC1=O [SYN1533] (Ac-VMHCWWDEEMLCRAF-NH2; disulfide 4-12 (inferred))
–	–	9300	–	CC(=O)N[C@@H](CCCNC(=N)N)C(=O)N[C@@H](Cc1ccc(O)cc1)C(=O)N[C@@H](Cc1ccccc1)C(=O)N[C@H]1CSSC[C@@H](C(=O)N[C@@H](CCC(=O)O)C(=O)N[C@@H](CCC(=O)O)C(=O)N[C@H](C(N)=O)C(C)C)NC(=O)[C@H](Cc2c[nH]c3ccccc23)NC(=O)CNC(=O)[C@H](Cc2c[nH]cn2)NC(=O)[C@H](C)NC(=O)[C@H](Cc2c[nH]c3ccccc23)NC(=O)[C@H](CCCCN)NC(=O)[C@H]([C@@H](C)O)NC1=O [SYN1548] (Ac-RYFCTKWAHGWCEEV-NH2; disulfide 4-12 (inferred))
61	1100	–	31 nM	CSCC[C@H](NC(=O)[C@@H](NC(C)=O)C(C)C)C(=O)N[C@@H](CCCCN)C(=O)N[C@H]1CSSC[C@@H](C(=O)N[C@@H](CCCNC(=N)N)C(=O)N[C@@H](C)C(=O)N[C@@H](Cc2ccccc2)C(N)=O)NC(=O)[C@H](CC(C)C)NC(=O)[C@H](Cc2ccccc2)NC(=O)[C@H](CCC(=O)O)NC(=O)[C@H](CCC(=O)O)NC(=O)[C@H](CC(=O)O)NC(=O)[C@H](Cc2c[nH]c3ccccc23)NC(=O)[C@H](Cc2c[nH]c3ccccc23)NC1=O [SYN1536] (Ac-VMKCWWDEEFLCRAF-NH2; disulfide 4-12 (inferred))
125	–	–	–	CSCC[C@@H]1NC(=O)[C@H](CCC(=O)O)NC(=O)[C@H](CCC(=O)O)NC(=O)[C@H](CC(=O)O)NC(=O)[C@H](Cc2c[nH]c3ccccc23)NC(=O)[C@H](Cc2c[nH]c3ccccc23)NC(=O)[C@@H](NC(=O)[C@H](CCCNC(=N)N)NC(=O)[C@H](CCSC)NC(=O)[C@@H](NC(C)=O)C(C)C)CSSC[C@@H](C(=O)N[C@@H](CCCNC(=N)N)C(=O)N[C@@H](C)C(=O)N[C@@H](Cc2ccccc2)C(N)=O)NC(=O)[C@H](CC(C)C)NC1=O [SYN1534] (Ac-VMRCWWDEEMLCRAF-NH2; disulfide 4-12 (inferred))
–	–	> 100000	–	CC(=O)N[C@@H](CCCNC(=N)N)C(=O)N[C@@H](Cc1ccc(O)cc1)C(=O)N[C@@H](Cc1ccccc1)C(=O)N[C@@H](C)C(=O)N[C@H](C(=O)N[C@@H](CCCCN)C(=O)N[C@@H](Cc1c[nH]c2ccccc12)C(=O)N[C@@H](CCCCN)C(=O)N[C@@H](Cc1c[nH]cn1)C(=O)NCC(=O)N[C@@H](Cc1c[nH]c2ccccc12)C(=O)N[C@@H](C)C(=O)N[C@@H](CCC(=O)O)C(=O)N[C@@H](CCC(=O)O)C(=O)N[C@H](C(N)=O)C(C)C)[C@@H](C)O [SYN1558] (Ac-RYFATKWKHGWAEEV-NH2)
99	–	–	450 nM and 300 nM	CSCC[C@@H]1NC(=O)[C@H](CCC(=O)O)NC(=O)[C@H](CCC(=O)O)NC(=O)[C@H](CC(=O)O)NC(=O)[C@H](Cc2c[nH]c3ccccc23)NC(=O)[C@H](Cc2c[nH]c3ccccc23)NC(=O)[C@@H](NC(=O)[C@H](CCCCN)NC(=O)[C@H](CCSC)NC(=O)[C@@H](NC(=O)CNC(=O)[C@H](C)NC(C)=O)C(C)C)CSSC[C@@H](C(=O)N[C@@H](CCCNC(=N)N)C(=O)N[C@@H](C)C(=O)N[C@@H](Cc2ccccc2)C(=O)NCC(=O)N[C@H](C(=O)NCC(=O)NCC(=O)NCC(=O)N[C@@H](CCCCN)C(N)=O)[C@@H](C)O)NC(=O)[C@H](CC(C)C)NC1=O [SYN531] (Ac-AGVMKCWWDEEMLCRAFGTGGGK-NH2; disulfide 6-14 (inferred))
